{"source": "the NIST ThermoML archive (doi:10.1016/j.jct.2015.03.001)", "key": {"[1]": {"experiment": "refractive index (Na D-line) (dimensionless); xn = mol fraction of the nth substance listed", "conditions": "99 kPa, Liquid, Abbe refractometer"}, "[2]": {"experiment": "relative permittivity at various frequencies (dimensionless); xn = mol fraction of the nth substance listed", "conditions": "99 kPa, Liquid, Frequency=2 MHz, Parallel plate capacitor"}}, "note": "± gives the expanded uncertainty stated by the source."}
{"smiles": "CC(C)CCl", "note": "[1-chloro-2-methylpropane] + CCCCCCC", "values": [{"measurement": "refractive index", "setting": "[1]; 283.15 K, x2 = 0", "result": "1.40354 ± 0.00031"}, {"measurement": "refractive index", "setting": "[1]; 283.15 K, x2 = 0.0485", "result": "1.40248 ± 0.00031"}, {"measurement": "refractive index", "setting": "[1]; 283.15 K, x2 = 0.1009", "result": "1.40145 ± 0.00031"}, {"measurement": "refractive index", "setting": "[1]; 283.15 K, x2 = 0.2046", "result": "1.39974 ± 0.00031"}, {"measurement": "refractive index", "setting": "[1]; 283.15 K, x2 = 0.3065", "result": "1.3983 ± 0.00031"}, {"measurement": "refractive index", "setting": "[1]; 283.15 K, x2 = 0.4028", "result": "1.39716 ± 0.00031"}, {"measurement": "refractive index", "setting": "[1]; 283.15 K, x2 = 0.5039", "result": "1.3961 ± 0.00031"}, {"measurement": "refractive index", "setting": "[1]; 283.15 K, x2 = 0.603", "result": "1.3952 ± 0.00031"}, {"measurement": "refractive index", "setting": "[1]; 283.15 K, x2 = 0.7033", "result": "1.39445 ± 0.00031"}, {"measurement": "refractive index", "setting": "[1]; 283.15 K, x2 = 0.8026", "result": "1.39381 ± 0.00031"}, {"measurement": "refractive index", "setting": "[1]; 283.15 K, x2 = 0.9158", "result": "1.39326 ± 0.00031"}, {"measurement": "refractive index", "setting": "[1]; 283.15 K, x2 = 0.9513", "result": "1.3931 ± 0.00031"}, {"measurement": "refractive index", "setting": "[1]; 298.15 K, x2 = 0", "result": "1.39529 ± 0.00031"}, {"measurement": "refractive index", "setting": "[1]; 298.15 K, x2 = 0.0485", "result": "1.39425 ± 0.00031"}, {"measurement": "refractive index", "setting": "[1]; 298.15 K, x2 = 0.1009", "result": "1.39325 ± 0.00031"}, {"measurement": "refractive index", "setting": "[1]; 298.15 K, x2 = 0.2046", "result": "1.39161 ± 0.00031"}, {"measurement": "refractive index", "setting": "[1]; 298.15 K, x2 = 0.3065", "result": "1.39022 ± 0.00031"}, {"measurement": "refractive index", "setting": "[1]; 298.15 K, x2 = 0.4028", "result": "1.38914 ± 0.00031"}, {"measurement": "refractive index", "setting": "[1]; 298.15 K, x2 = 0.5039", "result": "1.38814 ± 0.00031"}, {"measurement": "refractive index", "setting": "[1]; 298.15 K, x2 = 0.603", "result": "1.38729 ± 0.00031"}, {"measurement": "refractive index", "setting": "[1]; 298.15 K, x2 = 0.7033", "result": "1.3866 ± 0.00031"}, {"measurement": "refractive index", "setting": "[1]; 298.15 K, x2 = 0.8026", "result": "1.38601 ± 0.00031"}, {"measurement": "refractive index", "setting": "[1]; 298.15 K, x2 = 0.9158", "result": "1.38548 ± 0.00031"}, {"measurement": "refractive index", "setting": "[1]; 298.15 K, x2 = 0.9513", "result": "1.38538 ± 0.00031"}, {"measurement": "refractive index", "setting": "[1]; 313.15 K, x2 = 0", "result": "1.38683 ± 0.00031"}, {"measurement": "refractive index", "setting": "[1]; 313.15 K, x2 = 0.0485", "result": "1.38582 ± 0.00031"}, {"measurement": "refractive index", "setting": "[1]; 313.15 K, x2 = 0.1009", "result": "1.38485 ± 0.00031"}, {"measurement": "refractive index", "setting": "[1]; 313.15 K, x2 = 0.2046", "result": "1.38327 ± 0.00031"}, {"measurement": "refractive index", "setting": "[1]; 313.15 K, x2 = 0.3065", "result": "1.38196 ± 0.00031"}, {"measurement": "refractive index", "setting": "[1]; 313.15 K, x2 = 0.4028", "result": "1.38093 ± 0.00031"}, {"measurement": "refractive index", "setting": "[1]; 313.15 K, x2 = 0.5039", "result": "1.37999 ± 0.00031"}, {"measurement": "refractive index", "setting": "[1]; 313.15 K, x2 = 0.603", "result": "1.3792 ± 0.00031"}, {"measurement": "refractive index", "setting": "[1]; 313.15 K, x2 = 0.7033", "result": "1.37858 ± 0.00031"}, {"measurement": "refractive index", "setting": "[1]; 313.15 K, x2 = 0.8026", "result": "1.37804 ± 0.00031"}, {"measurement": "refractive index", "setting": "[1]; 313.15 K, x2 = 0.9158", "result": "1.37758 ± 0.00031"}, {"measurement": "refractive index", "setting": "[1]; 313.15 K, x2 = 0.9513", "result": "1.37749 ± 0.00031"}, {"measurement": "relative permittivity", "setting": "[2]; 283.15 K, x2 = 0", "result": "7.472 ± 0.075"}, {"measurement": "relative permittivity", "setting": "[2]; 283.15 K, x2 = 0.0467", "result": "7.151 ± 0.072"}, {"measurement": "relative permittivity", "setting": "[2]; 283.15 K, x2 = 0.1011", "result": "6.755 ± 0.068"}, {"measurement": "relative permittivity", "setting": "[2]; 283.15 K, x2 = 0.197", "result": "6.042 ± 0.06"}, {"measurement": "relative permittivity", "setting": "[2]; 283.15 K, x2 = 0.297", "result": "5.32 ± 0.053"}, {"measurement": "relative permittivity", "setting": "[2]; 283.15 K, x2 = 0.4028", "result": "4.619 ± 0.046"}, {"measurement": "relative permittivity", "setting": "[2]; 283.15 K, x2 = 0.5045", "result": "4.028 ± 0.04"}, {"measurement": "relative permittivity", "setting": "[2]; 283.15 K, x2 = 0.6012", "result": "3.537 ± 0.035"}, {"measurement": "relative permittivity", "setting": "[2]; 283.15 K, x2 = 0.7002", "result": "3.094 ± 0.031"}, {"measurement": "relative permittivity", "setting": "[2]; 283.15 K, x2 = 0.801", "result": "2.697 ± 0.027"}, {"measurement": "relative permittivity", "setting": "[2]; 283.15 K, x2 = 0.9058", "result": "2.303 ± 0.023"}, {"measurement": "relative permittivity", "setting": "[2]; 283.15 K, x2 = 0.9473", "result": "2.147 ± 0.021"}, {"measurement": "relative permittivity", "setting": "[2]; 298.15 K, x2 = 0", "result": "7.074 ± 0.071"}, {"measurement": "relative permittivity", "setting": "[2]; 298.15 K, x2 = 0.0467", "result": "6.783 ± 0.068"}, {"measurement": "relative permittivity", "setting": "[2]; 298.15 K, x2 = 0.1011", "result": "6.418 ± 0.064"}, {"measurement": "relative permittivity", "setting": "[2]; 298.15 K, x2 = 0.197", "result": "5.749 ± 0.058"}, {"measurement": "relative permittivity", "setting": "[2]; 298.15 K, x2 = 0.297", "result": "5.08 ± 0.051"}, {"measurement": "relative permittivity", "setting": "[2]; 298.15 K, x2 = 0.4028", "result": "4.43 ± 0.044"}, {"measurement": "relative permittivity", "setting": "[2]; 298.15 K, x2 = 0.5045", "result": "3.88 ± 0.039"}, {"measurement": "relative permittivity", "setting": "[2]; 298.15 K, x2 = 0.6012", "result": "3.425 ± 0.034"}, {"measurement": "relative permittivity", "setting": "[2]; 298.15 K, x2 = 0.7002", "result": "3.012 ± 0.03"}, {"measurement": "relative permittivity", "setting": "[2]; 298.15 K, x2 = 0.801", "result": "2.636 ± 0.026"}, {"measurement": "relative permittivity", "setting": "[2]; 298.15 K, x2 = 0.9058", "result": "2.262 ± 0.023"}, {"measurement": "relative permittivity", "setting": "[2]; 298.15 K, x2 = 0.9473", "result": "2.114 ± 0.021"}, {"measurement": "relative permittivity", "setting": "[2]; 313.15 K, x2 = 0", "result": "6.657 ± 0.067"}, {"measurement": "relative permittivity", "setting": "[2]; 313.15 K, x2 = 0.0467", "result": "6.395 ± 0.064"}, {"measurement": "relative permittivity", "setting": "[2]; 313.15 K, x2 = 0.1011", "result": "6.062 ± 0.061"}, {"measurement": "relative permittivity", "setting": "[2]; 313.15 K, x2 = 0.197", "result": "5.45 ± 0.055"}, {"measurement": "relative permittivity", "setting": "[2]; 313.15 K, x2 = 0.297", "result": "4.828 ± 0.048"}, {"measurement": "relative permittivity", "setting": "[2]; 313.15 K, x2 = 0.4028", "result": "4.232 ± 0.042"}, {"measurement": "relative permittivity", "setting": "[2]; 313.15 K, x2 = 0.5045", "result": "3.725 ± 0.037"}, {"measurement": "relative permittivity", "setting": "[2]; 313.15 K, x2 = 0.6012", "result": "3.3 ± 0.033"}, {"measurement": "relative permittivity", "setting": "[2]; 313.15 K, x2 = 0.7002", "result": "2.918 ± 0.029"}, {"measurement": "relative permittivity", "setting": "[2]; 313.15 K, x2 = 0.801", "result": "2.568 ± 0.026"}, {"measurement": "relative permittivity", "setting": "[2]; 313.15 K, x2 = 0.9058", "result": "2.219 ± 0.022"}, {"measurement": "relative permittivity", "setting": "[2]; 313.15 K, x2 = 0.9473", "result": "2.081 ± 0.021"}]}
